The values below come from patent US7122193B1 (priority 1994, dated 2006).

Assay [1] has as its target I-A^d class II molecules (Mus musculus, UniProt P01921+P04228). In kind it is cell-based.
For assay [2], the target named is I-E^d class II molecules (Mus musculus, UniProt P01904+P01915). It counts as cell-based.
I-E^d class II molecules, sequence (P01904 26-255 limits assumed): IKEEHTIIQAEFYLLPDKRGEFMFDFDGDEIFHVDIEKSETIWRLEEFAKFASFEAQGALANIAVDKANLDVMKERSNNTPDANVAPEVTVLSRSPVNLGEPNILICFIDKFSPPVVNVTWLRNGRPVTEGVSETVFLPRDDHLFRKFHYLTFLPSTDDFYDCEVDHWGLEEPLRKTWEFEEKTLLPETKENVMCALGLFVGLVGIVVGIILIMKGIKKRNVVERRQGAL
I-E^d class II molecules, sequence (P01915 27-264 limits assumed): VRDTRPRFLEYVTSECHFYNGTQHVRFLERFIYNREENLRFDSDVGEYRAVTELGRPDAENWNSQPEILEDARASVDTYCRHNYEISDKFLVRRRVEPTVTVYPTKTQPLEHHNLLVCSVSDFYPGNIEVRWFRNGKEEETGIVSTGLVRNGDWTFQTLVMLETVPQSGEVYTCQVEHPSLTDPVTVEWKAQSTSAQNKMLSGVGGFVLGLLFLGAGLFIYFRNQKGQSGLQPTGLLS

I-A^d class II molecules, sequence (P04228 24-256 limits assumed): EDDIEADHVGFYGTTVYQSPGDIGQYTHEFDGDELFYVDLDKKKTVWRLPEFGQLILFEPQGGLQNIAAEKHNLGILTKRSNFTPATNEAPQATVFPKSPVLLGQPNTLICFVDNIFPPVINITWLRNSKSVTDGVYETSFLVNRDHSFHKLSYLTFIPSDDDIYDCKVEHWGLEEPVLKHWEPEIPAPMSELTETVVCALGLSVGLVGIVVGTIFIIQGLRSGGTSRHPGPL
I-A^d class II molecules, sequence (P01921 28-265 limits assumed): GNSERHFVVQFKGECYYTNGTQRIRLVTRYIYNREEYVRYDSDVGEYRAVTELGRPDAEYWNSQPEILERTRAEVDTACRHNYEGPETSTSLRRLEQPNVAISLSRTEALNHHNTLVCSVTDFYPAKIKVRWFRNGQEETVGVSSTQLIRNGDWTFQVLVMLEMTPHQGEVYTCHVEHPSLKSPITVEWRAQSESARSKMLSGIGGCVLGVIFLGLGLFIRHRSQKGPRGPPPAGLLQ

With “CH3CO-(D)Thr-(D)Asp-(D)Lys-(D)Tyr-(D)Thr-(D)Ile-(D)Lys-(D)Trp-(D)Val-(D)Ala-(D)Phe-(D)Leu-(D)Lys-NH2”, the “binding to I-A^d transfected fibroblasts, in words” value in assay [1] is “Neither the L- nor the retro-inverso peptides bound”. In addition, the “inhibition (of IL-2 production / binding of cI 12–26)” value in assay [2] is listed as “up to 56%”.
